# Measurements from PubChem BioAssay (NCI).
#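 Assay format: 96-well plates, 48-hour exposure. TGI marks complete inhibition of growth.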
# Columns and labels:
# Experiment in all cases: inhibition of tumour cell growth, NCI panel, 48 h
# [1] = tested on: PC-3 prostate
# [2] = tested on: U251 CNS
# [3] = tested on: SW-620 colon
# [4] = tested on: UO-31 renal
# [5] = tested on: SF-268 CNS
# [6] = tested on: OVCAR-8 ovarian
# [7] = tested on: RPMI-8226 leukemia
# [8] = tested on: 786-0 renal
# [9] = tested on: A498 renal
# [10] = tested on: TK-10 renal
# [11] = tested on: HS 578T breast
# [12] = tested on: SR leukemia
# [13] = tested on: OVCAR-3 ovarian
# [14] = tested on: K-562 leukemia
# [15] = tested on: NCI-H23 lung
# [16] = tested on: CCRF-CEM leukemia
# [17] = tested on: MALME-3M melanoma
# [18] = tested on: ACHN renal
# [19] = tested on: UACC-257 melanoma
# [20] = tested on: HCT-15 colon
# [21] = tested on: HT29 colon
# [22] = tested on: NCI-H522 lung
# [23] = tested on: MCF7 breast
# [24] = tested on: T-47D breast
# [25] = tested on: SNB-19 CNS
# [26] = tested on: SF-539 CNS
# [27] = tested on: NCI/ADR-RES ovarian
# [28] = tested on: SK-OV-3 ovarian
# [29] = tested on: SK-MEL-28 melanoma
# [30] = tested on: KM12 colon
# [31] = tested on: NCI-H226 lung
# [32] = tested on: UACC-62 melanoma
# [33] = tested on: M14 melanoma
# [34] = tested on: OVCAR-4 ovarian
# [35] = tested on: BT-549 breast
# [36] = tested on: EKVX NSCLC
# [37] = tested on: HOP-62 NSCLC
# [38] = tested on: RXF 393 renal
# [39] = tested on: SF-295 CNS
# [40] = tested on: NCI-H460 lung
# [41] = tested on: DU-145 prostate
# [42] = tested on: SNB-75 CNS
# [43] = tested on: SN12C renal
# [44] = tested on: HL-60(TB) leukemia
# [45] = tested on: HCT-116 colon
# [46] = tested on: MDA-MB-231 breast
# [47] = tested on: MDA-MB-435
# [48] = tested on: HCC-2998 colon
# [49] = tested on: MOLT-4 leukemia
# [50] = tested on: HOP-92 NSCLC
# [51] = tested on: SK-MEL-5 melanoma
# [52] = tested on: A549 NSCLC
# [53] = tested on: OVCAR-5 ovarian
smiles,measurement,setting,value
COc1ccc(OC)c2c1C(=O)C(Cl)=C(N1CCN(CCOCCO)CC1)C2=O,TGI,[1],16 µM
same,TGI,[2],41.3 µM
same,TGI,[3],28.7 µM
same,TGI,[4],29.9 µM
same,TGI,[5],29.5 µM
same,TGI,[6],30.9 µM
same,TGI,[7],26.5 µM
same,TGI,[8],13.3 µM
same,TGI,[9],30.5 µM
same,TGI,[10],33.4 µM
same,TGI,[11],38.2 µM
same,TGI,[12],29.3 µM
same,TGI,[13],31.1 µM
same,TGI,[14],4.24 µM
same,TGI,[15],21.6 µM
same,TGI,[16],14.1 µM
same,TGI,[17],34.9 µM
same,TGI,[18],30.3 µM
same,TGI,[19],33 µM
same,TGI,[20],18.4 µM
same,TGI,[21],19.8 µM
same,TGI,[22],20.9 µM
same,TGI,[23],15 µM
same,TGI,[24],13.1 µM
same,TGI,[25],29.5 µM
same,TGI,[26],32.8 µM
same,TGI,[27],59 µM
same,TGI,[28],34 µM
same,TGI,[29],30.9 µM
same,TGI,[30],37.2 µM
same,TGI,[31],39.5 µM
same,TGI,[32],15.5 µM
same,TGI,[33],31.7 µM
same,TGI,[34],32 µM
same,TGI,[35],28 µM
same,TGI,[36],35.5 µM
same,TGI,[37],22.7 µM
same,TGI,[38],33.4 µM
same,TGI,[39],32.9 µM
same,TGI,[40],38 µM
same,TGI,[41],32.8 µM
same,TGI,[42],29.3 µM
same,TGI,[43],25.5 µM
same,TGI,[44],3.33 µM
same,TGI,[45],17 µM
same,TGI,[46],27.7 µM
same,TGI,[47],27.9 µM
same,TGI,[48],24.9 µM
same,TGI,[49],32.8 µM
same,TGI,[50],31.8 µM
same,TGI,[51],31.3 µM
same,TGI,[52],39 µM
same,TGI,[53],37.3 µM
